Patent publication US20090311203A1, “GEM-DIFLUORIDE C-GLYCOPEPTIDE COMPOUNDS, THEIR PREPARATION AND USE PARTICULARLY FOR PRESERVATION OF BIOLOGICAL MATERIALS” (INSTITUT NATIONAL DES SCIENCES APPLIQUEES DE ROUEN (INSA), priority 2006, published 2009)
Values joined by “and” are separate entries in the source; they are usually repeats but may differ in a detail not shown here. Equal values may be shown once.

What was measured:
Type in all cases: cell-based
[1] = system: primary adult skin fibroblasts; assay: Protection of fibroblasts against UV-C exposure; details: 37° C., 8.6 mM; for cell protection against UV (in words): UV-C 2 hours; for live cells still observed: UV-C (254 nm) for 2 hours
Procedure: In the following experiments, the studies were conducted at 37° C. on adult primary skin fibroblasts. The cells were exposed to UV-C irradiation for 2 hours in the presence of AAGP derivatives.

[2] = system: primary adult skin fibroblasts; assay: Preservation of fibroblasts at low temperature (−3° C.); details: 8.6 mM
Procedure: The purpose of the following experiment is to test the preservation activity of AAGP 11 compounds at low temperatures.
The cells are thus incubated at −3° C. in the presence of the compound AAGP 11.

[3] = system: HELA cells; assay: Survival of HELA cells subjected to UVC; details: exposed to UVC; low concentrations; FIGS. 37, 38 and 39
Procedure: FIGS. 37, 38 and 39 are representations of the effects of the various derivatives on the survival of HELA cells subjected to UVC.
Studies were conducted on HELA cells, exposed to UVC, in the presence of the various synthesised compounds, at low concentrations.

SMILES	cell protection against UV (in words) [1]	survival of HELA cells compared to the control (in words) [3]	further results
C[C@H](NC(=O)[C@@H](N)CCCCNC(=O)C(F)(F)[C@]1(O)O[C@H](CO)[C@H](O)[C@H](O)[C@H]1O)C(=O)O [Compound 11]	high level of cell	Very satisfactory results	live cells still observed ([1]; after 72 hours, serum-free medium with 0.5 mM EDTA, all control cells dead): 92% live cells are still; live cells still observed ([1]; after 4 days, almost all dead in the control): After 4 days, 60% live; survival ([2]; after 6 days at −3° C., serum-free medium with 0.5 mM EDTA, control cells all dead): approximately 100% survival; cell preservation activity at low temperature (in words) ([2]; −3° C., listed as AAGP-11): very high preservation activity and 11 displays a very high
COC(=O)[C@H](C)NC(=O)[C@H](CCCCNC(=O)C(F)(F)[C@]1(O)O[C@H](COCc2ccccc2)[C@H](OCc2ccccc2)[C@H](OCc2ccccc2)[C@H]1OCc1ccccc1)NC(=O)OCc1ccccc1 [AAGP-15]	excellent protective properties		
C[C@H](NC(=O)[C@@H](N)CCCCNC(=O)C(F)(F)[C@]1(O)O[C@H](CO)[C@H](O)[C@H](O)[C@H]1O)C(=O)O [Compound 12]		inferior results compared to the control	
C[C@H](NC(=O)[C@@H](N)CCCNC(=O)C(F)(F)[C@]1(O)O[C@H](CO)[C@H](O)[C@H](O)[C@H]1O)C(=O)O [Compound 26]		inferior results compared to the control	
N[C@@H](CCCCNC(=O)C(F)(F)[C@]1(O)O[C@H](CO)[C@H](O)[C@H](O)[C@H]1O)C(=O)NCC(=O)O [Compound 30]		improve the survival of these cells compared to the control	
